Measurements from ChEMBL document CHEMBL3352703, “Sulfamates of methyl triterpenoates are effective and competitive inhibitors of carbonic anhydrase II” (Eur J Med Chem, 2014).

Key:
Carbonic anhydrase 2 = Carbonic anhydrase 2 (Bos taurus, UniProt P00921); assay: Inhibition of bovine erythrocyte carbonic anhydrase 2 using 4-nitrophenyl acetate substrate by photometric assay
[1] = Cytotoxicity against mouse NIH/3T3 cells after 96 hrs by SRB assay; assay type: cell-based; details: NIH3T3, 96 h

Carbonic anhydrase 2, sequence (P00921 whole entry): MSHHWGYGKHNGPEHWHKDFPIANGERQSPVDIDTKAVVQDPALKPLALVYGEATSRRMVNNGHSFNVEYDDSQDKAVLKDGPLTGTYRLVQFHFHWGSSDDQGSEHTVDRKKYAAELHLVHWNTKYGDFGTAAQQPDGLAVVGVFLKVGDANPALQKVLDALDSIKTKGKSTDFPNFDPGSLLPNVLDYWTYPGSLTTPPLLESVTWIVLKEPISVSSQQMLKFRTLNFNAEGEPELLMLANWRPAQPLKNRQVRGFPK

SMILES	Ki (Carbonic anhydrase 2)	IC50 [1]
COC(=O)[C@@]1(C)CC[C@]2(C)CC[C@]3(C)C(=CC(=O)[C@@H]4[C@@]5(C)CC[C@H](O)C(C)(C)[C@@H]5CC[C@]43C)[C@@H]2C1	> 10 µM	–
COC(=O)[C@@]1(C)CC[C@]2(C)CC[C@]3(C)C(=CC[C@@H]4[C@@]5(C)CC[C@H](O)C(C)(C)[C@@H]5CC[C@]43C)[C@@H]2C1	> 10 µM	–
COC(=O)[C@]12CCC(C)(C)C[C@H]1C1=CC(=O)[C@@H]3[C@@]4(C)CC[C@H](O)C(C)(C)[C@@H]4CC[C@@]3(C)[C@]1(C)CC2	> 50 µM	–
COC(=O)[C@]12CC[C@@H](C(C)=O)[C@@H]1[C@H]1CC[C@@H]3[C@@]4(C)CC[C@H](O)C(C)(C)[C@@H]4CC[C@@]3(C)[C@]1(C)CC2	> 5 µM	–
COC(=O)[C@]12CC[C@@H](C)[C@H](C)[C@H]1C1=CC(=O)[C@@H]3[C@@]4(C)CC[C@H](O)C(C)(C)[C@@H]4CC[C@@]3(C)[C@]1(C)CC2	> 50 µM	–
COC(=O)[C@]12CCC(C)(C)C[C@H]1C1=CC[C@@H]3[C@@]4(C)CC[C@H](OS(N)(=O)=O)C(C)(C)[C@@H]4CC[C@@]3(C)[C@]1(C)CC2	0.308 µM	12.8 µM
COC(=O)[C@]12CC[C@@H](C)[C@H](C)[C@H]1C1=CC[C@@H]3[C@@]4(C)CC[C@H](OS(N)(=O)=O)C(C)(C)[C@@H]4CC[C@@]3(C)[C@]1(C)CC2	1.11 µM	22.8 µM
C=C(C)[C@@H]1CC[C@]2(C(=O)OC)CC[C@]3(C)[C@H](CC[C@@H]4[C@@]5(C)CC[C@H](OS(N)(=O)=O)C(C)(C)[C@@H]5CC[C@]43C)[C@@H]12	2.16 µM	9.8 µM
COC(=O)[C@@]1(C)CC[C@]2(C)CC[C@]3(C)C(=CC(=O)[C@@H]4[C@@]5(C)CC[C@H](OS(N)(=O)=O)C(C)(C)[C@@H]5CC[C@]43C)[C@@H]2C1	1.51 µM	> 30 µM
COC(=O)[C@@]1(C)CC[C@]2(C)CC[C@]3(C)C(=CC[C@@H]4[C@@]5(C)CC[C@H](OS(N)(=O)=O)C(C)(C)[C@@H]5CC[C@]43C)[C@@H]2C1	> 4 µM	> 30 µM
COC(=O)[C@]12CC[C@@H](C(C)=O)[C@@H]1[C@H]1CC[C@@H]3[C@@]4(C)CC[C@H](OS(N)(=O)=O)C(C)(C)[C@@H]4CC[C@@]3(C)[C@]1(C)CC2	1.74 µM	> 30 µM
COC(=O)[C@]12CCC(C)(C)C[C@H]1C1=CC[C@@H]3[C@@]4(C)C[C@@H](OS(N)(=O)=O)[C@H](O)C(C)(C)[C@@H]4CC[C@@]3(C)[C@]1(C)CC2	> 20 µM	12.6 µM
COC(=O)[C@]12CCC(C)(C)C[C@H]1C1=CC[C@@H]3[C@@]4(C)C[C@@H](O)[C@H](OS(N)(=O)=O)C(C)(C)[C@@H]4CC[C@@]3(C)[C@]1(C)CC2	1.41 µM	2.2 µM
COC(=O)[C@]12CCC(C)(C)C[C@H]1C1=CC(=O)[C@@H]3[C@@]4(C)CC[C@H](OS(N)(=O)=O)C(C)(C)[C@@H]4CC[C@@]3(C)[C@]1(C)CC2	1.49 µM	25.9 µM
COC(=O)[C@]12CC[C@@H](C)[C@H](C)[C@H]1C1=CC(=O)[C@@H]3[C@@]4(C)CC[C@H](OS(N)(=O)=O)C(C)(C)[C@@H]4CC[C@@]3(C)[C@]1(C)CC2	> 15 µM	25.9 µM
COC(=O)[C@]12CCC(C)(C)C[C@H]1C1=CC[C@@H]3[C@@]4(C)C[C@@H](O)[C@H](O)C(C)(C)[C@@H]4CC[C@@]3(C)[C@]1(C)CC2 [MASLINIC ACID METHYL ESTER]	> 25 µM	–
C=C(C)[C@@H]1CC[C@]2(C(=O)OC)CC[C@]3(C)[C@H](CC[C@@H]4[C@@]5(C)CC[C@H](O)C(C)(C)[C@@H]5CC[C@]43C)[C@@H]12 [METHYL BETULINATE]	> 50 µM	–
COC(=O)[C@]12CCC(C)(C)C[C@H]1C1=CC[C@@H]3[C@@]4(C)CC[C@H](O)C(C)(C)[C@@H]4CC[C@@]3(C)[C@]1(C)CC2 [METHYL OLEANOLATE]	> 10 µM	–
COC(=O)[C@]12CC[C@@H](C)[C@H](C)[C@H]1C1=CC[C@@H]3[C@@]4(C)CC[C@H](O)C(C)(C)[C@@H]4CC[C@@]3(C)[C@]1(C)CC2 [METHYL URSOLATE]	> 10 µM	–
